Columns and labels:
[1] = Permeability of the compound assessed as molar fraction in membrane at 0.5 mM measured after 16 hrs by PAMPA; assay type: ADME; settings: 500 µM
[2] = Permeability of the compound assessed as rate constant for partitioning to the membrane by PAMPA; assay type: ADME
[3] = Permeability of the compound assessed as molar fraction in donor well at 0.5 mM measured after 16 hrs by PAMPA; assay type: ADME; settings: 500 µM
[4] = Permeability of the compound assessed as rate constant for coming off the membrane by PAMPA; assay type: ADME
[5] = Permeability of the compound assessed as molar fraction in donor well at 0.5 mM measured immediately by PAMPA; assay type: ADME; settings: 500 µM
[6] = Permeability of the compound assessed as molar fraction in acceptor well at 0.5 mM measured after 16 hrs by PAMPA; assay type: ADME; settings: 500 µM
[7] = Permeability of the compound assessed as molar fraction in acceptor well at 0.5 mM measured after 2 hrs by PAMPA; assay type: ADME; settings: 500 µM
[8] = n-Octanol/water partition coefficient, log P of the compound by UV-RP-HPLC analysis; assay type: physicochemical
[9] = Permeability of the compound assessed as molar fraction in membrane at 0.5 mM measured after 2 hrs by PAMPA; assay type: ADME; settings: 500 µM
[10] = Permeability of the compound assessed as molar fraction in donor well at 0.5 mM measured after 2 hrs by PAMPA; assay type: ADME; settings: 500 µM
[11] = Permeability of the compound assessed as ratio of Kin to Kout by PAMPA; assay type: ADME
[12] = test system: Lipid bilayer; assay: Binding affinity to POPC liposome membrane assessed as intrinsic dipolar splitting (D) at <1 mg by solid-state 19F NMR spectra analysis
[13] = n-Octanol/water partition coefficient, log P of the compound by RP-HPLC analysis; assay type: physicochemical
[14] = Permeability of the compound by PAMPA

Row | SMILES | permeability [1] [%] | K [2] [×10⁻⁵ /s] | permeability [3] [%] | K [4] [×10⁻⁷ /s] | permeability [5] [%] | permeability [6] [%] | permeability [7] [%] | logP [8] | permeability [9] [%] | permeability [10] [%] | Ratio [11] | D [12] [kHz] | logP [13] | Papp [14] [×10⁻⁶ cm/s]
1 | CO/C1=C\C(C)=C\[C@@H](C)[C@@H](O)[C@@H](C)C/C(C)=C/C=C/[C@H](OC)[C@@H]([C@@H](C)[C@@H](O)[C@H](C)[C@@]2(O)C[C@@H](O)[C@H](C)[C@@H](C(C)C)O2)OC1=O [BAFILOMYCIN A1] | 90.5 | 20.7 | 11 | 3.25 | 100 | -1.5 | 4.8 | 4.74 | 67.9 | 27.4 | 1170 | – | – | –
2 | CO/C1=C\C(C)=C\C[C@@H](O)CC/C(C)=C/C=C/[C@H](OC)[C@@H]([C@@H](C)[C@@H](O)[C@H](C)[C@@]2(O)C[C@@H](O)[C@H](C)[C@@H](C(F)(F)F)O2)OC1=O | 63.1 | 7.08 | 30.2 | 5.91 | 100 | 6.7 | 2.8 | 2.81 | 33.7 | 63.4 | 143 | 2.4 | – | –
3 | CO/C1=C\C(C)=C\[C@@H](C)[C@@H](O)[C@@H](C)C/C(C)=C/C=C/[C@H](OC)[C@@H]([C@@H](C)[C@@H](O)[C@H](C)[C@@]2(O)C[C@@H](O)[C@H](C)[C@@H](C(F)(F)F)O2)OC1=O | 83.7 | 9.55 | 16.6 | 2.47 | 100 | -0.2 | -0.5 | 4.54 | 48.3 | 52.2 | 393 | 2.9 | – | –
4 | OC/C=C/c1ccccc1 [CINNAMIC ALCOHOL] | – | – | – | – | – | – | – | – | – | – | – | – | 1.9 | –
5 | Cn1c(=O)c2[nH]cnc2n(C)c1=O.O [THEOPHYLLINE] | – | – | – | – | – | – | – | – | – | – | – | – | – | 0.0848

Now from value to molecule, other results behind:

Row | permeability [1] [%] | K [2] [×10⁻⁵ /s] | permeability [3] [%] | K [4] [×10⁻⁷ /s] | permeability [5] [%] | permeability [6] [%] | permeability [7] [%] | logP [8] | permeability [9] [%] | permeability [10] [%] | Ratio [11] | D [12] [kHz] | logP [13] | SMILES | Papp [14] [×10⁻⁶ cm/s]
6 | – | – | – | – | – | – | – | 3.84 | – | – | – | – | – | Cc1ccc(C(=O)c2ccc(C)cc2)cc1 | –
7 | – | – | – | – | – | – | – | – | – | – | – | – | 4.29 | Cc1c(Cl)cccc1Cl | –
